Results from the NIST ThermoML archive (doi:10.1021/je900227j).
± gives the expanded uncertainty stated by the source.

Conditions: 101.33 kPa, Liquid; for mass density: Pycnometric method; for speed of sound: Pulse-echo method

CCCBr [1-bromopropane]
Conditions	mass density [kg/m3]	speed of sound [m/s]
243.15 K	1431.07 ± 0.54	–
243.76 K	–	1144.8 ± 2.4
253.15 K	1415.43 ± 0.51	–
263.15 K	1400.28 ± 0.49	–
263.38 K	–	1075 ± 2.2
273.15 K	1385.33 ± 0.47	–
273.31 K	–	1040.1 ± 2.1
283.15 K	1369.4 ± 0.45	–
283.26 K	–	1005.5 ± 2.1
293.15 K	1352.89 ± 0.43	–
293.22 K	–	971.22 ± 2
298.15 K	1344.48 ± 0.43	–
298.21 K	–	954.05 ± 2
323.21 K	–	870.16 ± 1.8
343.21 K	–	804.19 ± 1.7
363.23 K	–	739.38 ± 1.5
383.47 K	–	674.94 ± 1.4

CCCCCCCBr [1-bromoheptane]
Conditions	mass density [kg/m3]	speed of sound [m/s]
243.74 K	–	1308.3 ± 2.8
253.15 K	1180.21 ± 0.53	–
263.15 K	1169.57 ± 0.51	–
273.15 K	1159.15 ± 0.48	–
273.33 K	–	1207.2 ± 2.6
283.15 K	1148.71 ± 0.46	–
298.15 K	1132.91 ± 0.44	–
303.19 K	–	1108.7 ± 2.4
323.14 K	–	1045.1 ± 2.3
323.15 K	1105.97 ± 0.47	–
343.15 K	1084.54 ± 0.5	–
353.14 K	–	952.86 ± 2.1
363.15 K	1061.75 ± 0.53	–
383.15 K	1038.55 ± 0.56	–
383.17 K	–	863.47 ± 1.9
393.15 K	1026.63 ± 0.58	–
423.22 K	–	748.09 ± 1.7

CCCCCCCCCBr [1-bromononane]
Conditions	mass density [kg/m3]	speed of sound [m/s]
253.15 K	1124.52 ± 1.5	–
253.46 K	–	1329.9 ± 3.5
263.2 K	1115.2 ± 1.4	–
273.15 K	1105.5 ± 1.4	–
273.29 K	–	1262.7 ± 3.3
283.15 K	1096.09 ± 1.4	–
293.15 K	1086.58 ± 1.3	–
298.15 K	1082.2 ± 1.3	–
303.15 K	–	1165.1 ± 3.2
323.14 K	–	1101.1 ± 3.1
323.15 K	1058.34 ± 1.3	–
343.15 K	1038.92 ± 1.3	–
353.1 K	–	1009.9 ± 3
363.15 K	1019.42 ± 1.3	–
383.05 K	–	921.46 ± 2.8
383.15 K	999.36 ± 1.3	–
393.15 K	989.17 ± 1.3	–
402.98 K	–	864.42 ± 2.8
413.15 K	968.48 ± 1.3	–
422.72 K	–	808.79 ± 2.7

CCCCCCCCCCCBr [1-bromoundecane]
Conditions	mass density [kg/m3]	speed of sound [m/s]
273.15 K	1067.26 ± 1.3	–
273.42 K	–	1307 ± 3.4
283.2 K	1058.34 ± 1.3	–
293.2 K	1049.49 ± 1.2	–
298.15 K	1045.03 ± 1.2	–
303.22 K	–	1209 ± 3.3
323.19 K	–	1145.6 ± 3.2
323.2 K	1023.21 ± 1.2	–
343.2 K	1005.75 ± 1.2	–
353.14 K	–	1054.4 ± 3
363.2 K	987.93 ± 1.3	–
383.14 K	–	966.59 ± 2.9
383.2 K	969.56 ± 1.3	–
403.13 K	–	909.71 ± 2.8
403.25 K	951.27 ± 1.3	–
423.13 K	–	854.45 ± 2.8

CCCCCCCCCCBr [1-bromodecane]
Conditions	mass density [kg/m3]	speed of sound [m/s]
253.4 K	1105.66 ± 1.6	–
263.3 K	1096.34 ± 1.5	–
273.25 K	1087.32 ± 1.5	–
283.2 K	1078.06 ± 1.4	–
293.15 K	1069.01 ± 1.4	–
298.15 K	1064.47 ± 1.4	–
323.15 K	1041.72 ± 1.4	–
323.2 K	–	1123.8 ± 3.2
343.15 K	1023.01 ± 1.4	–
353.19 K	–	1032.2 ± 3.1
363.15 K	1004.33 ± 1.4	–
383.15 K	985.41 ± 1.4	–
383.22 K	–	944.49 ± 2.9
403.23 K	–	888.22 ± 2.9
403.25 K	966.27 ± 1.4	–
423.27 K	–	833.21 ± 2.8
423.3 K	946.49 ± 1.4	–

CCCCCBr [1-bromopentane]
Conditions	mass density [kg/m3]	speed of sound [m/s]
243.73 K	–	1240 ± 2.8
253.15 K	1260.65 ± 0.79	–
263.15 K	1249.88 ± 0.76	–
273.32 K	–	1137.5 ± 2.6
283.15 K	1226.85 ± 0.69	–
293.15 K	1214.88 ± 0.66	–
303.15 K	1202.6 ± 0.67	–
303.22 K	–	1037.1 ± 2.4
323.15 K	1177.13 ± 0.69	–
323.17 K	–	972.37 ± 2.3
343.15 K	1150.97 ± 0.72	–
353.18 K	–	877.57 ± 2.1
363.15 K	1124.69 ± 0.74	–
383.15 K	1097.39 ± 0.76	–
383.23 K	–	785.49 ± 2
393.15 K	1083.35 ± 0.78	–
403.28 K	–	725.54 ± 1.9
423.48 K	–	666.58 ± 1.8

CCCCBr [1-bromobutane]
Conditions	mass density [kg/m3]	speed of sound [m/s]
243.38 K	–	1195.3 ± 2.5
253.15 K	1326.49 ± 0.5	–
263.15 K	1313.8 ± 0.48	–
273.15 K	1300.5 ± 0.46	–
273.26 K	–	1091 ± 2.3
283.15 K	1286.37 ± 0.43	–
293.15 K	1272.7 ± 0.41	–
298.15 K	1265.66 ± 0.42	–
303.15 K	1258.55 ± 0.42	–
323.15 K	1229.53 ± 0.45	–
323.22 K	–	925.99 ± 1.9
343.22 K	–	861.16 ± 1.8
363.23 K	–	797.6 ± 1.7
383.31 K	–	735.21 ± 1.6

CCCCCCCCBr [1-bromooctane]
Conditions	mass density [kg/m3]	speed of sound [m/s]
243.61 K	–	1336.3 ± 2.9
253.15 K	1151.11 ± 0.55	–
263.15 K	1140.86 ± 0.52	–
273.15 K	1131.22 ± 0.5	–
273.28 K	–	1235.4 ± 2.7
283.15 K	1121.21 ± 0.47	–
293.15 K	1111.01 ± 0.45	–
303.15 K	1100.89 ± 0.46	–
303.16 K	–	1137.2 ± 2.5
323.02 K	–	1073.8 ± 2.4
323.15 K	1080.6 ± 0.49	–
343.15 K	1060.45 ± 0.51	–
352.91 K	–	981.92 ± 2.2
363.15 K	1039.47 ± 0.55	–
382.88 K	–	892.87 ± 2
383.15 K	1018.75 ± 0.58	–
393.15 K	1008.38 ± 0.6	–
402.55 K	–	835.51 ± 1.9
423.04 K	–	778.72 ± 1.8

CCCCCCCCCCCCBr [1-bromododecane]
Conditions	mass density [kg/m3]	speed of sound [m/s]
273.15 K	1056.54 ± 0.45	–
273.32 K	–	1323.5 ± 2.8
283.15 K	1048.47 ± 0.43	–
293.15 K	1039.81 ± 0.41	–
303.15 K	1031.27 ± 0.42	–
303.21 K	–	1224.8 ± 2.6
323.15 K	1013.99 ± 0.45	–
323.18 K	–	1161.2 ± 2.5
343.15 K	996.24 ± 0.48	–
353.15 K	–	1069.7 ± 2.4
363.15 K	979.02 ± 0.51	–
383.15 K	961.54 ± 0.55	–
383.17 K	–	982.95 ± 2.2
393.15 K	952.43 ± 0.57	–
403.19 K	–	926.37 ± 2.1
413.15 K	933.49 ± 0.6	–
423.14 K	–	871.74 ± 2
423.15 K	923.65 ± 0.62	–

CCCCCCBr [1-bromohexane]
Conditions	mass density [kg/m3]	speed of sound [m/s]
243.6 K	–	1273.8 ± 2.7
253.15 K	1217.95 ± 0.52	–
263.15 K	1206.62 ± 0.5	–
273.15 K	1195.28 ± 0.47	–
273.31 K	–	1172.8 ± 2.5
283.15 K	1183.82 ± 0.45	–
298.15 K	1166.83 ± 0.43	–
303.2 K	–	1073.6 ± 2.3
323.15 K	1137.27 ± 0.46	–
323.2 K	–	1009.3 ± 2.2
343.15 K	1113.66 ± 0.49	–
353.16 K	–	916.03 ± 2
383.15 K	1066.11 ± 0.55	–
383.19 K	–	826.35 ± 1.8
403.15 K	1040.91 ± 0.58	–
403.25 K	–	767.47 ± 1.7
423.23 K	–	709.98 ± 1.6
